# Source: patent US8445539B2, “Alpha-aminoamide derivatives useful in the treatment of psychiatric disorders” (priority 2007, dated 2013)
# Assays:
# [1] = system: MK-801 induced hyperlocomotion; assay: MK-801 induced hyperlocomotion in mice; format: in vivo; details: MK-801 induced locomotion in mice
# Method: Glutamate N-methyl-D-aspartate (NMDA) receptor antagonists, like phencyclidine (PCP) or MK-801, elicit schizophrenia-like symptoms in humans and behavioural abnormalities in animals, such as hyperactivity. Atypical antipsychotics decrease hyperlocomotion produced in mice by MK-801 or PCP and this represents a commonly used animal models predictive of efficacy against the symptoms of schizophrenia. Vehicle or compound was injected 30-35 min before the animal entered the activity chambers. Hyperlocomotion was produced in mice by administration of MK-801 (0.3 mg/kg) 15 min before the animal entered the activity chambers (i.e., […] min after vehicle or compound administration) and the total distance traveled in centimeters was determined during a 15-30 min session. The increase in MK-801-induced total distance traveled were attenuated by active compounds.
# [2] = system: d-amphetamine-induced PPI impairment; assay: Amphetamine-induced PPI deficit (ralfinamide and haloperidol association); format: in vivo; details: ralfinamide methanesulfonate per se 60 mg/kg p.o.; d-amphetamine 2.5 mg/kg s.c.; rats
# Method: A PPI test, carried out according to the method described in Example 4, was performed in rats.
smiles,measurement,setting,value
"C[C@H](NCc1ccc(OCc2ccccc2F)cc1)C(N)=O [Ralfinamide methanesulfonate, (S)-(+)-2-[4-(2-fluorobenzyloxy)benzylamino]propanamide]",Activity in schizophrenia animal model (Example 5),[1],active
same,Reversal of PPI impairment induced by d-amphetamine,[2],did not reverse
